ChEMBL document CHEMBL1201862, “PubChem BioAssay data set” (2004)
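Briefly, cells in 96-well plates were exposed to five compound concentrations for 48 h, and endpoints were estimated by linear interpolation. Abbreviation: GI50, concentration required for 50% inhibition of growth.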 Calls of active or inactive are those of the source. Cut-off read from the data, not from the text of the source: active = GI50 up to about 1.1 µM and inactive = higher.

Assays:
Experiment in all cases: NCI-60 cell line screen, 48 h
Malme-3M = test system: Malme-3M
LOX IMVI = test system: LOX IMVI
NCI/ADR-RES = test system: NCI/ADR-RES
NCI-H23 = test system: NCI-H23
A498 = test system: A498
SNB-75 = test system: SNB-75
SW-620 = test system: SW-620
OVCAR-5 = test system: OVCAR-5
SK-MEL-28 = test system: SK-MEL-28
HOP-62 = test system: HOP-62
KM12 = test system: KM12
M14 = test system: M14
HOP-92 = test system: HOP-92
HL-60 = test system: HL-60
SF-539 = test system: SF-539
SF-268 = test system: SF-268
UACC-62 = test system: UACC-62
OVCAR-3 = test system: OVCAR-3
OVCAR-4 = test system: OVCAR-4

With `O=C(O)CCSc1nnc(COc2ccc(Cl)cc2)n1-c1ccccc1` the GI50 (Malme-3M) was > 100 µM (inactive), the GI50 (LOX IMVI) was > 100 µM (inactive) and the GI50 (NCI/ADR-RES) was > 100 µM (inactive). For the same compound, the GI50 (NCI-H23) was > 100 µM (inactive), the GI50 (A498) was > 100 µM (inactive) and the GI50 (SNB-75) was > 100 µM (inactive). For the same compound, the GI50 (SW-620) was > 100 µM (inactive), the GI50 (OVCAR-5) was > 100 µM (inactive) and the GI50 (SK-MEL-28) was > 100 µM (inactive). For the same compound, the GI50 (HOP-62) was > 100 µM (inactive), the GI50 (KM12) was > 100 µM (inactive) and the GI50 (M14) was > 100 µM (inactive). For the same compound, the GI50 (HOP-92) was > 100 µM (inactive), the GI50 (HL-60) was > 100 µM (inactive) and the GI50 (SF-539) was > 100 µM (inactive). For the same compound, the GI50 (SF-268) was > 100 µM (inactive), the GI50 (UACC-62) was > 100 µM (inactive) and the GI50 (OVCAR-3) was > 100 µM (inactive). The GI50 (OVCAR-4) was > 100 µM (inactive).
With `c1ccc(CNc2c3c(nc4ccccc24)CCC3)cc1` the GI50 (Malme-3M) was 17.3 µM (inactive), the GI50 (LOX IMVI) was 14 µM (inactive) and the GI50 (NCI/ADR-RES) was 14.2 µM (inactive). For the same compound, the GI50 (NCI-H23) was 16.3 µM (inactive), the GI50 (A498) was 11.7 µM (inactive) and the GI50 (SNB-75) was 18 µM (inactive). The GI50 (SW-620) was 11.9 µM (inactive), the GI50 (OVCAR-5) was 15.5 µM (inactive) and the GI50 (SK-MEL-28) was 11.8 µM (inactive). The GI50 (HOP-62) was 8.97 µM (inactive), the GI50 (KM12) was 15.6 µM (inactive) and the GI50 (M14) was 13.7 µM (inactive). For the same compound, the GI50 (HOP-92) was 10.4 µM (inactive), the GI50 (HL-60) was 0.0303 µM (active) and the GI50 (SF-539) was 14.5 µM (inactive). For the same compound, the GI50 (SF-268) was 21.7 µM (inactive), the GI50 (UACC-62) was 12.8 µM (inactive) and the GI50 (OVCAR-3) was 12.2 µM (inactive). For the same compound, the GI50 (OVCAR-4) was 15 µM (inactive).
In the case of `O=C1CC2SC(COCc3ccccc3)(CCN2Cc2ccccc2)C1` (stereo not drawn), the GI50 (Malme-3M) is reported as 39.3 µM (inactive), the GI50 (LOX IMVI) is reported as 31.8 µM (inactive) and the GI50 (NCI/ADR-RES) is reported as 65 µM (inactive). The GI50 (NCI-H23) was 43.9 µM (inactive), the GI50 (A498) was > 100 µM (inactive) and the GI50 (SNB-75) was > 100 µM (inactive). For the same compound, the GI50 (SW-620) was > 100 µM (inactive), the GI50 (OVCAR-5) was > 100 µM (inactive) and the GI50 (SK-MEL-28) was > 100 µM (inactive). For the same compound, the GI50 (HOP-62) was > 100 µM (inactive), the GI50 (KM12) was 52.2 µM (inactive) and the GI50 (M14) was 49.1 µM (inactive). The GI50 (HOP-92) was 45.6 µM (inactive), the GI50 (HL-60) was 18 µM (inactive) and the GI50 (SF-539) was > 100 µM (inactive). The GI50 (SF-268) was > 100 µM (inactive), the GI50 (UACC-62) was 81.1 µM (inactive) and the GI50 (OVCAR-3) was > 100 µM (inactive). The GI50 (OVCAR-4) was 61.9 µM (inactive).
`OC[C@H](O)[C@@H](OCc1ccccc1)[C@H](NCc1ccccc1)c1cccs1` was tested, and the GI50 (Malme-3M) was > 100 µM (inactive), the GI50 (LOX IMVI) was > 100 µM (inactive) and the GI50 (NCI/ADR-RES) was > 100 µM (inactive). The GI50 (NCI-H23) was 55.7 µM (inactive), the GI50 (A498) was > 100 µM (inactive) and the GI50 (SNB-75) was 65.3 µM (inactive). The GI50 (SW-620) was > 100 µM (inactive), the GI50 (OVCAR-5) was > 100 µM (inactive) and the GI50 (SK-MEL-28) was > 100 µM (inactive). For the same compound, the GI50 (HOP-62) was > 100 µM (inactive), the GI50 (KM12) was > 100 µM (inactive) and the GI50 (M14) was > 100 µM (inactive). For the same compound, the GI50 (HOP-92) was > 100 µM (inactive), the GI50 (HL-60) was > 100 µM (inactive) and the GI50 (SF-539) was > 100 µM (inactive). The GI50 (SF-268) was 4.11 µM (inactive), the GI50 (UACC-62) was > 100 µM (inactive) and the GI50 (OVCAR-3) was > 100 µM (inactive). The GI50 (OVCAR-4) was > 100 µM (inactive).
`CCOC(=O)c1cc2c3c(c(C(C)=O)c(OC)c2[nH]1)N(C(=O)CC)CC3` was tested, and the GI50 (Malme-3M) was 12.6 µM (inactive), the GI50 (LOX IMVI) was 14.6 µM (inactive) and the GI50 (NCI/ADR-RES) was 13.4 µM (inactive). For the same compound, the GI50 (NCI-H23) was 11.9 µM (inactive), the GI50 (A498) was 36.9 µM (inactive) and the GI50 (SNB-75) was 20.7 µM (inactive). The GI50 (SW-620) was 24.9 µM (inactive), the GI50 (OVCAR-5) was 27.7 µM (inactive) and the GI50 (SK-MEL-28) was 15.3 µM (inactive). For the same compound, the GI50 (HOP-62) was 25.1 µM (inactive), the GI50 (KM12) was 10.7 µM (inactive) and the GI50 (M14) was 16.8 µM (inactive). For the same compound, the GI50 (HOP-92) was 13.5 µM (inactive), the GI50 (HL-60) was 6.4 µM (inactive) and the GI50 (SF-539) was 19.8 µM (inactive). The GI50 (SF-268) was 16.4 µM (inactive), the GI50 (UACC-62) was 16.3 µM (inactive) and the GI50 (OVCAR-3) was 14.5 µM (inactive). For the same compound, the GI50 (OVCAR-4) was 21.5 µM (inactive).
`CC1CNC(c2ccc(CN3CCC(C4CCN(Cc5ccc(C6=NC(C)CN6)cc5)CC4)CC3)cc2)=N1` (stereo not drawn) was tested, and the GI50 (Malme-3M) was 23.9 µM (inactive), the GI50 (LOX IMVI) was 22.7 µM (inactive) and the GI50 (NCI/ADR-RES) was 34.4 µM (inactive). The GI50 (NCI-H23) was 28 µM (inactive), the GI50 (A498) was 29.2 µM (inactive) and the GI50 (SNB-75) was 16.6 µM (inactive). For the same compound, the GI50 (SW-620) was 18.2 µM (inactive), the GI50 (OVCAR-5) was 24.9 µM (inactive) and the GI50 (SK-MEL-28) was 32.6 µM (inactive). For the same compound, the GI50 (HOP-62) was 14.9 µM (inactive), the GI50 (KM12) was 15.7 µM (inactive) and the GI50 (M14) was 20.2 µM (inactive). For the same compound, the GI50 (HOP-92) was 75.7 µM (inactive), the GI50 (HL-60) was 36.1 µM (inactive) and the GI50 (SF-539) was 20.3 µM (inactive). The GI50 (SF-268) was 22.4 µM (inactive), the GI50 (UACC-62) was 19.9 µM (inactive) and the GI50 (OVCAR-3) was 17.5 µM (inactive). For the same compound, the GI50 (OVCAR-4) was 16.8 µM (inactive).
In the case of `CC(C)OC(=O)C(NC(=O)C(CC(=O)OCc1ccccc1)NC(=O)OCc1ccccc1)NC(=O)C1C(C)(C)CCC1(C)C` (stereo not drawn), the GI50 (Malme-3M) is reported as 18 µM (inactive), the GI50 (LOX IMVI) is reported as 4.56 µM (inactive) and the GI50 (NCI/ADR-RES) is reported as 4.98 µM (inactive). For the same compound, the GI50 (NCI-H23) was 10.2 µM (inactive), the GI50 (A498) was 2.5 µM (inactive) and the GI50 (SNB-75) was 2.68 µM (inactive). The GI50 (SW-620) was 3.23 µM (inactive), the GI50 (OVCAR-5) was 14.8 µM (inactive) and the GI50 (SK-MEL-28) was > 42 µM (inactive). The GI50 (HOP-62) was 6.56 µM (inactive), the GI50 (KM12) was 9.02 µM (inactive) and the GI50 (M14) was 21.5 µM (inactive). The GI50 (HOP-92) was 11 µM (inactive), the GI50 (HL-60) was 3.76 µM (inactive) and the GI50 (SF-539) was 2.81 µM (inactive). The GI50 (SF-268) was 15 µM (inactive), the GI50 (UACC-62) was 20.7 µM (inactive) and the GI50 (OVCAR-3) was 2.77 µM (inactive). The GI50 (OVCAR-4) was 3.55 µM (inactive).
